Source: patent US10512631B2, “Chalcone compounds” (Beth Israel Deaconess Medical Center, Inc., priority 2015, dated 2019)

Key:
Format in all cases: cell-based
PC3 cells [1] = assay: RT2 profiler PCR array Human Cancer Pathway; details: after treatment vs DMSO
Procedure: RT^2 profiler PCR array Human Cancer Pathway was purchased from SA Biosciences. RNA from PC3 cells treated with DMSO or Compound 6 were isolated and prepared for RT-PCR following manufacturer' protocol. Analysis was performed online using the software provided by SA Biosciences.

STMN1 = STMN1 immunostaining and immunoblotting in PC3 cells; details: PC3 cells, 0.01, 0.1 and 1 μM; 30 minutes, 1 hour, 24 hours
Procedure: (§1) Immunofluorescence and immunostaining on cell lines and tumor samples were performed as described in Wegiel et al, Cancer research 2013, 73(23), 7009-21. Anti-mouse STMN1, anti-P (Ser10)-Histone H3, and α-tubulin antibody were obtained from Cell Signaling. β-actin antibody was obtained from Sigma-Aldrich. Cells were treated with Compound 6 (1 μM) or DMSO for 48 hours. After immunofluorescence staining, the number of P-Histone H3 was quantified per field of view at 40× magnification using Zeiss Axiovert Microscope.
Snap-frozen tissue samples were homogenized in ice-cold tissue lysis buffer (250 mM NaCl, 5 mM EDTA, 1% Triton X-100, 10 mM Tris-HCl; pH 7.5) containing the protease inhibitor cocktail Complete Mini (Roche). For co-immunoprecipitation, 200 μg protein lysates in RIPA buffer and the protease inhibitor cocktail were mixed with appropriate antibodies and 30 μl Protein A/G Plus-agarose beads (Santa Cruz Biotechnology) and then rotated for 1 hour at room temperature. The proteins were washed with RIPA buffer and eluted (95° C., 5 min in SDS loading buffer). Immunoblotting was performed as previously described in Chin et al., Proc. Natl. Acad. Sci. USA 2007, 104(12), 5109-14. Antibodies: P (Ser967)-ASK1 (Cell Signaling), Ask1 (Cell Signaling), P-STMN1 (Ser16) (Cell Signaling), STMN1 (Cell Signaling), 13-Actin (Sigma) were used at 1:1000 dilution.

[2] = test system: PC3 cells transfected with siRNA against STMN1; assay: Crystal violet staining of PC3 cells transfected with siRNA against STMN1; details: siRNA STMN1 vs control siRNA; 1 μM Compound 6, 1 μM Compound 7, 0.1 μM Compound 8, 72 hours
Procedure: Cells were seeded at 5×10^3 concentration in 96 well plates and treated with test compounds or DMSO (0.001-10 μM) for 72 hours. Culture medium was removed and cells were stained with crystal violet solution (Sigma-Aldrich) for 15 minutes while shaking at room temperature. Crystal violet was then removed and cells were repeatedly washed in water. Attached cells stained with crystal violet were dried and then resuspended in 10% acetic acid. Absorbance was measured at 562 nm. The intensity of staining corresponded directly to the number of live cells.
(§2) siRNA against STMN1 and scramble siRNA were obtained from Darmacon (ONTARGET plus siRNA). PC3 cells were transiently transfected with siRNA against STMN1 or scramble siRNA using Lipofectamine 2000 (Invitrogen) as previously described in Wegiel et al., J. Biol. Chem. 2009, 7; 284(32):21369-78. Twenty four hours post-transfection, cells were split to 96 well plates and treated with test compounds for 72 hours. STMN1 levels were measured by immunoblotting to confirm successful knockdown.

PC3 cells [3] = assay: Immunofluorescence of P-Histone H3 and α-tubulin in PC3 cells (siRNA STMN1 or control)
Procedure: as §1, §2

A549 cells = assay: Invasion chambers (Transwell, Matrigel); details: serum chemoattractants, compared to untreated cells
Procedure: The invasion of A549 cells was measured using Transwell chambers (Chemicon, Millipore, Calif.) according to the manufacturer's protocol. Briefly, A549 cells were treated with test compounds at 1 μM in 500 μl of DMEM medium without FBS for 24 hours. Medium in the upper chamber was serum-free while medium in the lower chamber contained 10% FBS as a source of chemoattractants. Cells that passed through the Matrigel-coated membrane were stained and photographed after 24 hours of incubation. Absorbance was measured at 562 nm by ELISA reader after dissolving of stained cells in 10% acetic acid.

PC3 = assay: Cytoxicity / crystal violet staining, PC3; details: Homo sapiens, PC-3; 0.01-5 μM for 72 hours, n=4

## Cn1ccc2cc(/C=C3\CCc4ccc(F)cc4C3=O)ccc21 [Compound 6, (2E)-7-fluoro-2-[(1-methyl-1H-indol-5-yl)methylidene]-1,2,3,4-tetrahydronaphthalen-1-one]
PC3 cells [1]
  adrenomedullin mRNA elevation: more than 4 fold
  stathmin (STMN1) mRNA elevation: more than 4 fold
STMN1
  STMN1 level by immunoblotting: very early (30 minutes to 1 hour) stabilization of STMN1
[2]
  cell death in response to compound in the absence of STMN1: attenuated in the absence of STMN1
PC3 cells [3]; 1 μM
  number of cells undergoing mitosis (P-Histone H3) and normal mitotic spindles (α-tubulin): blocked number of cells undergoing mitosis
PC3 cells [3]; siRNA against STMN1, 1 μM
  microtubule destabilization, aberrant mitotic spindle and P-Histone H3 positive cells in the absence of STMN1: in part reversed
A549 cells
  invasion / migration through matrigel coated chambers: strongly inhibited invasion
PC3
  IC50: 147 nM
